# Assays:
# [1] = tested on: LPS-stimulated bone marrow-derived macrophages; assay: Inflammatory mediators in LPS-stimulated bone marrow-derived macrophages; assay type: cell-based, mouse; conditions: ABA 2.5 μM, 12 hours
# Method: Bone Marrow-derived Macrophage (BMM) Cultures—Bone marrow cells from PPAR γ flfl; MMTV-Cre− (flfl-Cre−) and flfl-Cre+ mice were cultured in DMEM with M-CSF (50 ng/ml) for 7 days. Fresh media with M-CSF was added on day 3. […] Following differentiation macrophages were directly stimulated with LPS (100 ng/ml) as previously described for 12 hours (21). ABA was added to macrophage cultures at a concentration of 2.5 μM. The effect of ABA on LPS/toll-like receptor-4 (TLR4)-mediated prostaglandin E2 (PGE2), leukotriene B4 (LTB4) and monocyte chemoattractant protein-1 (MCP-1) production by macrophages was examined in cell supernatants 12 hours following the LPS challenge by using a commercial PGE2 EIA kit (Cayman Chemicals), a LTB4 competitive binding assay (R&D Systems) and a MCP-1 ELISA (R&D Systems), respectively, per the manufacturer's instructions.
# NF-κB [2] = assay: NF-κB reporter activity assay in RAW macrophages; conditions: data not shown
# NF-κB [3] = assay: NF-κB reporter activity assay in 3T3-L1 cells
# [4] = tested on: LPS-induced splenic gene expression; assay: LPS challenge in mice, spleen real-time qRT-PCR
# A/California/09 (H1N1) = assay: Post-exposure ABA by gavage, A/California/09 (H1N1) challenge in mice; assay type: in vivo, mouse
# [5] = tested on: LPS-induced systemic inflammation; assay: LPS challenge in mice, immune cell subsets by flow cytometry; assay type: in vivo, mouse
# Method: Flow Cytometry—Mesenteric lymph nodes (MLN) and spleen-derived cells (2×10^5 cells/well) or whole blood (10 μL/well) were seeded onto 96-well plates, centrifuged at 4° C. at 3000 rpm for 4 minutes, and washed with PBS containing 5% fetal bovine serum and 0.09% sodium azide (FACS buffer). To assess differential monocyte/macrophage subsets, the cells were incubated in the dark at 4° C. for 20 minutes in FcBlock (20 μg/ml; BD Pharmingen), and then for an additional 20 minutes with fluorochrome-conjugated primary antibodies anti-F4/80-PE-Cy5 (5 μg/mL, eBioscience) and anti-CD 11b-Alexa Fluor 700 (2 μg/mL, eBioscience), and anti-TLR-4-PE-Cy7 (2 μg/mL, eBioscience). For lymphocyte assessment, cells were incubated with anti-CD4-FITC (2 μg/mL; BD Pharmingen), anti-CD8-PerCp-Cy5.5 (2 μg/mL, eBioscience), CD3 PE-Cy5 (2 μg/mL; BD Pharmingen), anti-TLR-4 PE-Cy7, and anti-IL17A-PE (2 μg/mL, eBioscience) as previously shown (23). Flow results were computed with a BD LSR II flow cytometer and data analyses was performed with FACS Diva software (BD).
# RXR = RXR reporter activity (data not shown); assay type: cell-based
# RAR = RAR reporter activity (data not shown); assay type: cell-based
# macrophages = assay: Intracellular cAMP in macrophages; assay type: cell-based, mouse; conditions: 10 minutes
# Method: Intracellular cAMP in CD3/CD28-stimulated splenocytes and LPS-stimulated macrophages—Spleens were excised from C57BL6/J mice under sterile conditions. Cells were released by disrupting the tissue between frosted glass slides and red blood cells were lysed with erythrocyte lysis buffer. Splenocytes were enumerated with a Coulter Counter (Beckman Coulter, Fullerton, Calif.) and seeded in cRPMI at 1×10^6/ml onto 24-well plates pre-coated with anti-mouse CD3 (5 μg/mL; BD Pharmingen) and anti-mouse CD28 (1 μg/mL; BD Pharmingen). […] For intracellular assessment of cAMP, cells were harvested into 0.1 M HCl and the lysates were collected. The cAMP concentration of the lysates was determined using an EIA kit (Assay Designs, Ann Arbor, Mich.).
# lymphocytes = assay: IL-2 production and lymphocyte proliferation (unpublished data); assay type: cell-based
# [6] = target: T1, ligand-binding domain of PPAR γ (Homo sapiens, UniProt P37231); assay: PPAR γ ligand-binding assay (Polarscreen PPAR Competitor Assay, Green); conditions: 0.001-10 μM, 4 hours
# T1 construct: purchased Invitrogen
# T1 sequence (P37231 238-503 limits assumed): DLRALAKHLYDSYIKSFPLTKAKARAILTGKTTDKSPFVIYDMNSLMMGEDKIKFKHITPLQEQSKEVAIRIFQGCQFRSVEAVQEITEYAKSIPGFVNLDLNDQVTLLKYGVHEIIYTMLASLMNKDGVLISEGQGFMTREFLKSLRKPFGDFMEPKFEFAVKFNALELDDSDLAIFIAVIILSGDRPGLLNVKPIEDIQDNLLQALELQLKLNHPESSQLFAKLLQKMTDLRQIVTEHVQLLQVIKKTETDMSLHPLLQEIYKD
# Method: After 4 hours the ability of each compound to displace the fluorescent ligand, and therefore reduce the polarization values, was assessed using a fluorescent plate reader with 485 nm excitation and 535 nm emission. Results are a compilation of 4 independent experiments.
# NF-κB p65 = NF-κB p65 activity in BMM stimulated with LPS/IFN-γ; assay type: cell-based, mouse
# Method: Bone Marrow-derived Macrophage (BMM) Cultures—Bone marrow cells from PPAR γ flfl; MMTV-Cre− (flfl-Cre−) and flfl-Cre+ mice were cultured in DMEM with M-CSF (50 ng/ml) for 7 days. Fresh media with M-CSF was added on day 3. […] Following differentiation macrophages were directly stimulated with LPS (100 ng/ml) as previously described for 12 hours (21). ABA was added to macrophage cultures at a concentration of 2.5 μM. […]
# NF-κB and NFAT activities—Spleens were diced into smaller pieces in lysis buffer containing dithiothreitol and a protease inhibitor cocktail and then further disrupted using a dounce ground glass homogenizer at 4° C. […] The extracts were used to perform a Bradford-based assay for quantifying the protein concentrations and stored at −80° C. NF-κB and NFATc1 activities were measured as previously described (13) by using the Trans-AM™ NF-κB p65 and the Trans-AM™ NFATc1 ELISA-based assays (Active Motif), respectively per the manufacturer's instructions.
# Influenza A/Udorn (H3N2) = assay: Dietary (prophylactic) ABA, influenza virus challenge in mice; assay type: in vivo, mouse; conditions: for survival: ABA diet
smiles,measurement,setting,value
"CC1=CC(=O)CC(C)(C)C1(O)/C=C/C(C)=C\C(=O)O (racemic) [ABA, abscisic acid]",PGE2 secretion,[1]; EIA,significantly suppressed
same,MCP-1 secretion,[1]; ELISA,significantly suppressed
same,NF-κB reporter activity,NF-κB [2],increased
same,NF-κB reporter activity,NF-κB [3],significantly suppressed
same,iNOS mRNA expression,[4]; data not shown,no effect
same,effects of ABA on splenic gene expression,[4]; mice lacking PPAR γ in immune cells,abrogated
same,NCOA6 mRNA expression,[4]; regardless of the LPS challenge,increased
same,Glut4 mRNA,"[4]; spleen, LPS challenge",mitigated the LPS-mediated suppression
same,PPAR γ mRNA,"[4]; spleen, LPS challenge",mitigated the LPS-mediated suppression
same,TNF-α mRNA,"[4]; spleen, LPS challenge",suppressed LPS-mediated up-regulation
same,weight loss and recovery,"A/California/09 (H1N1); 100 mg/kg oral gavage once daily 10 days, from 4 hours post-infection",suppressed weight loss for both strains and accelerated recovery
same,glucose tolerance,A/California/09 (H1N1); lean and obese mice infected with H1N1,ameliorated glucose tolerance
same,glucose tolerance,A/California/09 (H1N1); uninfected control mice,ameliorated glucose tolerance
same,MCP-1 expression in white adipose tissue,A/California/09 (H1N1); uninfected mice,down-regulated MCP-1 expression
same,TLR4 expression levels by macrophages,[5]; LPS-treated PPAR γ-expressing mice,reduced
same,percentages of blood monocytes (F4/80+CD11b+),"[5]; LPS-treated immune cell-specific PPAR γ null mice, diet 36 days",significantly increased
same,TLR4 expression in CD8+ T cells,[5]; non-LPS treated mice,significantly reduced
same,TLR4 expression in MLN F4/80+CD11b+ macrophages,[5]; supplemented diet 36 days,significantly suppressed
same,RXR reporter activity,RXR,does not increase
same,RAR reporter activity,RAR,does not increase
same,concentration at cAMP peak,macrophages,2.5 µM
same,cAMP peak over control,macrophages; 2.5 μM,10%
same,IL-2 production,lymphocytes,increases
same,lymphocyte proliferation,lymphocytes,increases
same,ability to compete with the tracer for binding to the PPAR γ LBD,[6],not a PPAR γ ligand
same,NF-κB p65 activity in nuclear extracts,"NF-κB p65; 2.5 μM ABA, PPAR γ-expressing primary macrophages",significantly decreased
same,NF-κB activity,NF-κB p65; macrophages with loss of PPAR γ,further activation induced by ABA
same,survival,Influenza A/Udorn (H3N2); WT mice,100%
same,maximum loss of original body weight,"Influenza A/Udorn (H3N2); WT mice, ABA diet 100 mg/kg of diet",5%
same,lung MCP-1 mRNA expression,"Influenza A/Udorn (H3N2); WT mice, vs control diet",consistently lower levels of MCP-1 mRNA expression
same,extent of vascular infiltrates,"Influenza A/Udorn (H3N2); WT, vs control diet",diminished
same,infiltration of respiratory airways,"Influenza A/Udorn (H3N2); WT, vs control diet",diminished
same,lung MCP-1 mRNA expression,Influenza A/Udorn (H3N2); cKO mice,failed to down-regulate MCP-1 expression
same,beneficial effect on lung inflammatory cell infiltration,Influenza A/Udorn (H3N2); cKO mice fed ABA,abrogated
same,survival,Influenza A/Udorn (H3N2); cKO mice,71.2%
same,viral loads in the lungs,Influenza A/Udorn (H3N2); day 4 post-infection,no significant differences
same,expression of PPAR γ in BAL-derived cells,"Influenza A/Udorn (H3N2); healthy non-infected WT mice, 36 days",significantly increased
same,epithelial recovery,Influenza A/Udorn (H3N2); lung histopathology,neither did it have any effect
same,extent of epithelial necrosis,"Influenza A/Udorn (H3N2); lung histopathology, days 2, 4, 7",did not affect
same,weight loss,Influenza A/Udorn (H3N2); mice with defective PPAR γ expression in immune and epithelial cells (cKO),behaved similar to WT mice fed the control diet
